According to the kinase profiling compilation of Christmann-Franck et al. (2016):

Columns and labels:
Assay in all cases: Caliper, Mobility shift assay off-chip
Details in all cases: compound 10.0 µM
[1] = target: MELK (human) (UniProt Q14680)
[2] = target: PTK2 (human) (UniProt Q05397)
[3] = target: TNK2 (human) (UniProt Q07912)
[4] = target: ABL1 (human) (UniProt P00519)
[5] = target: AXL (human) (UniProt P30530)
[6] = target: CAMK1D (human) (UniProt Q8IU85)
[7] = target: CDK3 CCNE1 (human) (UniProt P24864+Q00526)
[8] = target: CLK3 (human) (UniProt P49761)
[9] = target: CSNK1D (human) (UniProt P48730)
[10] = target: CSNK1G1 (human) (UniProt Q9HCP0)
[11] = target: DAPK3 (human) (UniProt O43293)
[12] = target: DMPK (human) (UniProt Q09013)
Sequence of DMPK (human) (Q09013 whole entry, looked up): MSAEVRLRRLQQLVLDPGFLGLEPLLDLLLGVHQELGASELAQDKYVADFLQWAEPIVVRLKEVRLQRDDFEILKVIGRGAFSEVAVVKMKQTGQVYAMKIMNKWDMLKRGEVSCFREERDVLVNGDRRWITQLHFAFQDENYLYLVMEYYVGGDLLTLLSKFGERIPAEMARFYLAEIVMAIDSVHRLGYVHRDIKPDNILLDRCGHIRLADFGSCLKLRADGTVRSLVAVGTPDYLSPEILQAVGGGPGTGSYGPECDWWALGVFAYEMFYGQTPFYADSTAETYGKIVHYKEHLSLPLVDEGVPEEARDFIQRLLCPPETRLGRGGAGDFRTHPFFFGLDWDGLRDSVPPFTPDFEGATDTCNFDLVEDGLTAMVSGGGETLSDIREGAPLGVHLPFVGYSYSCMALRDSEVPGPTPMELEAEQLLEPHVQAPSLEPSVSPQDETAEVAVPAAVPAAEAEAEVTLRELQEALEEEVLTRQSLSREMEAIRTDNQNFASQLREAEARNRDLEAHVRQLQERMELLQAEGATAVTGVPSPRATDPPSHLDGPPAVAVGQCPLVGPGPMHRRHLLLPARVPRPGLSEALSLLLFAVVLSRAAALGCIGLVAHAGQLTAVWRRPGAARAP

[13] = target: EEF2K (human) (UniProt O00418)
[14] = test system: EGFR (human), P00533 [L861Q]
[15] = target: EPHB4 (human) (UniProt P54760)
[16] = target: FER (human) (UniProt P16591)
[17] = target: FGR (human) (UniProt P09769)
[18] = target: FLT4 (human) (UniProt P35916)
[19] = target: GRK5 (human) (UniProt P34947)
[20] = target: ITK (human) (UniProt Q08881)
[21] = target: JAK3 JH1 JH2 (human) (UniProt P52333)
[22] = test system: KIT (human), P10721 [V560G]
[23] = target: MAP3K5 (human) (UniProt Q99683)
[24] = target: MAPK9 (human) (UniProt P45984)
[25] = target: MARK1 (human) (UniProt Q9P0L2)
[26] = target: NUAK1 (human) (UniProt O60285)
Sequence of NUAK1 (human) (O60285 whole entry, looked up): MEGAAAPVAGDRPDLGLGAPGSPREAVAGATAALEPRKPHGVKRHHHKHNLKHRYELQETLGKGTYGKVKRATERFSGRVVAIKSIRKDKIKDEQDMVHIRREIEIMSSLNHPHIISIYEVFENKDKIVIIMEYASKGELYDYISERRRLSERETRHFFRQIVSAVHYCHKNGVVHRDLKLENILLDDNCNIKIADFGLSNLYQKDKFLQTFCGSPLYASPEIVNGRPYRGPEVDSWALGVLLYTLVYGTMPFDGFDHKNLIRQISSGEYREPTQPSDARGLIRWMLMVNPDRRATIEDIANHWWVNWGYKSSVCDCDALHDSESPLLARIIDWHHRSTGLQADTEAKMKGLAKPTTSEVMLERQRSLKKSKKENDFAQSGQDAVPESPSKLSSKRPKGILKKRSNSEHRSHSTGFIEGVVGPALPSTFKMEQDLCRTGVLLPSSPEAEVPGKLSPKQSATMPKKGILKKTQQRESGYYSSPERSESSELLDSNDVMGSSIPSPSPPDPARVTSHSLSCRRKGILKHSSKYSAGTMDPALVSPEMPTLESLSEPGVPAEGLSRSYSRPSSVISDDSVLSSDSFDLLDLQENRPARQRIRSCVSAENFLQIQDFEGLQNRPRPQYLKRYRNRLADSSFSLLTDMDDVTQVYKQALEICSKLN

[27] = target: PAK6 (human) (UniProt Q9NQU5)
[28] = test system: PDGFRA (human), P16234 [V561D]
[29] = target: PHKG2 (human) (UniProt P15735)
Sequence of PHKG2 (human) (P15735 whole entry, looked up): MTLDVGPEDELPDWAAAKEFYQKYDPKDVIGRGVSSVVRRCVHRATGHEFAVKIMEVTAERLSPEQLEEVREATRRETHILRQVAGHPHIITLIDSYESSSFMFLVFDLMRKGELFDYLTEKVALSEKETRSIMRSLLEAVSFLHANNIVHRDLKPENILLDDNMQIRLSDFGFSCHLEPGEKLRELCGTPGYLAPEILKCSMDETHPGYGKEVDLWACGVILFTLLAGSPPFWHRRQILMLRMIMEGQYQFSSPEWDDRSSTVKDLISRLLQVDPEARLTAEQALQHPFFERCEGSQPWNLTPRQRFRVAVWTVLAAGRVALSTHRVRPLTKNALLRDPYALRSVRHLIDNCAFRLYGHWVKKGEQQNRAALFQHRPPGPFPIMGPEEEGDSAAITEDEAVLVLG

[30] = target: PLK2 (human) (UniProt Q9NYY3)
[31] = target: PRKCE (human) (UniProt Q02156)
Sequence of PRKCE (human) (Q02156 whole entry, looked up): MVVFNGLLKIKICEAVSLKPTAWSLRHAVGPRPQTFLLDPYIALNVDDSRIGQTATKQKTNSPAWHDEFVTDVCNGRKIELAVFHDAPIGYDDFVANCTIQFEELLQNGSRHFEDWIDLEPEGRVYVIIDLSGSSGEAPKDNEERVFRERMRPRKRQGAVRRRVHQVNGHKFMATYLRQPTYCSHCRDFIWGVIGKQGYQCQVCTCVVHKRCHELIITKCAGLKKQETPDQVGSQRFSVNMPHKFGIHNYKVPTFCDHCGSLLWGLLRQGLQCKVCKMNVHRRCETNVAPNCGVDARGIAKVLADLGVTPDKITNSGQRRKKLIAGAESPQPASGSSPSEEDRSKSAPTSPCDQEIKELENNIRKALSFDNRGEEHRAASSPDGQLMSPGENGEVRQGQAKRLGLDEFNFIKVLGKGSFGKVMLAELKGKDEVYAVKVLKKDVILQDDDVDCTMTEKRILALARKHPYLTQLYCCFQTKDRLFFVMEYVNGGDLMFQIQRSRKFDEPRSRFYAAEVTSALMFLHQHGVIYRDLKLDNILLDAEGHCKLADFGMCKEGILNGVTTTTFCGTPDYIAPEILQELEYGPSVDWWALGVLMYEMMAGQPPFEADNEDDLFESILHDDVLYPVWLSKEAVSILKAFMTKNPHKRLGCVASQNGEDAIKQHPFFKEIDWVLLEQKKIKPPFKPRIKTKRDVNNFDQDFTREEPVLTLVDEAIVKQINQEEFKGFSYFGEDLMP

[32] = target: PRKCZ (human) (UniProt Q05513)
[33] = target: PRKD2 (human) (UniProt Q9BZL6)
[34] = target: PRKG1 (human) (UniProt Q13976)
Sequence of PRKG1 (human) (Q13976 whole entry, looked up): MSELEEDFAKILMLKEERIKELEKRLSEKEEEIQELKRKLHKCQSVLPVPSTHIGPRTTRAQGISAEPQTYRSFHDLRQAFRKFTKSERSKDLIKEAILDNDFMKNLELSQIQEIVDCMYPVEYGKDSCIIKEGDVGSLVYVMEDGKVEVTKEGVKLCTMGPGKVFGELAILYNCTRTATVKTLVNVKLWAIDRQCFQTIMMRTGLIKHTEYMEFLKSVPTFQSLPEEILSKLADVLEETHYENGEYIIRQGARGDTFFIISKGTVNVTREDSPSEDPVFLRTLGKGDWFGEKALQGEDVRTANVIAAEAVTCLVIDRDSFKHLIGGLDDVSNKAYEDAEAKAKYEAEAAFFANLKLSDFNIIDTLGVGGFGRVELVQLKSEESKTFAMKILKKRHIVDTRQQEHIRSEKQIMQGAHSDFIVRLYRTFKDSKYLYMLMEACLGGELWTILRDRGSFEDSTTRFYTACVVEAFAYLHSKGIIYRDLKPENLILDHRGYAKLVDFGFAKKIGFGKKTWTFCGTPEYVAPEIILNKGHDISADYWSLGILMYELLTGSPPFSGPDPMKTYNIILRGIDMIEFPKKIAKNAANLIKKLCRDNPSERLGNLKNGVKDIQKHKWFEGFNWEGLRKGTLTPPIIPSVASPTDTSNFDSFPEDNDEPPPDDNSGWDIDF

[35] = target: PTK6 (human) (UniProt Q13882)
[36] = target: RPS6KA4 KD1 KD2 (human) (UniProt O75676)
[37] = target: RPS6KA6 KD1 KD2 (human) (UniProt Q9UK32)
[38] = target: STK11 (human) (UniProt Q15831)
[39] = target: SYK (human) (UniProt P43405)
[40] = target: TAOK2 (human) (UniProt Q9UL54)
[41] = target: TSSK1B (human) (UniProt Q9BXA7)

Sequence of MELK (human) (Q14680 whole entry, looked up): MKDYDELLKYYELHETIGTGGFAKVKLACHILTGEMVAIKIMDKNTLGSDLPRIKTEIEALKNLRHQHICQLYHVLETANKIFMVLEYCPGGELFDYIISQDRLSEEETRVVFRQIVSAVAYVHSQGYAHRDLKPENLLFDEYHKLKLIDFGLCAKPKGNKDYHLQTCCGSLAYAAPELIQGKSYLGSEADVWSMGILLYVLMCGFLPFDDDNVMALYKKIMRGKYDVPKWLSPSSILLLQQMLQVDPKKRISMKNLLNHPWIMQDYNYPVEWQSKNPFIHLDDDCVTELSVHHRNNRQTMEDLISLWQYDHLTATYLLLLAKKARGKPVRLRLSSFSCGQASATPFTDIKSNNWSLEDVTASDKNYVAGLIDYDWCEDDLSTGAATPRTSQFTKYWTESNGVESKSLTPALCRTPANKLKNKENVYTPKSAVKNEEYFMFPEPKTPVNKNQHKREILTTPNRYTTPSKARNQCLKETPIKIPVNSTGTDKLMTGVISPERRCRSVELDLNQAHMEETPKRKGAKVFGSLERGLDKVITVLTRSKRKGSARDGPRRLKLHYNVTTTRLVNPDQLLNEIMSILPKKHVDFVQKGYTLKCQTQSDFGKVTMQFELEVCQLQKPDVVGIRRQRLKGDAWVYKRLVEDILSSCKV
Sequence of PTK2 (human) (Q05397 whole entry, looked up): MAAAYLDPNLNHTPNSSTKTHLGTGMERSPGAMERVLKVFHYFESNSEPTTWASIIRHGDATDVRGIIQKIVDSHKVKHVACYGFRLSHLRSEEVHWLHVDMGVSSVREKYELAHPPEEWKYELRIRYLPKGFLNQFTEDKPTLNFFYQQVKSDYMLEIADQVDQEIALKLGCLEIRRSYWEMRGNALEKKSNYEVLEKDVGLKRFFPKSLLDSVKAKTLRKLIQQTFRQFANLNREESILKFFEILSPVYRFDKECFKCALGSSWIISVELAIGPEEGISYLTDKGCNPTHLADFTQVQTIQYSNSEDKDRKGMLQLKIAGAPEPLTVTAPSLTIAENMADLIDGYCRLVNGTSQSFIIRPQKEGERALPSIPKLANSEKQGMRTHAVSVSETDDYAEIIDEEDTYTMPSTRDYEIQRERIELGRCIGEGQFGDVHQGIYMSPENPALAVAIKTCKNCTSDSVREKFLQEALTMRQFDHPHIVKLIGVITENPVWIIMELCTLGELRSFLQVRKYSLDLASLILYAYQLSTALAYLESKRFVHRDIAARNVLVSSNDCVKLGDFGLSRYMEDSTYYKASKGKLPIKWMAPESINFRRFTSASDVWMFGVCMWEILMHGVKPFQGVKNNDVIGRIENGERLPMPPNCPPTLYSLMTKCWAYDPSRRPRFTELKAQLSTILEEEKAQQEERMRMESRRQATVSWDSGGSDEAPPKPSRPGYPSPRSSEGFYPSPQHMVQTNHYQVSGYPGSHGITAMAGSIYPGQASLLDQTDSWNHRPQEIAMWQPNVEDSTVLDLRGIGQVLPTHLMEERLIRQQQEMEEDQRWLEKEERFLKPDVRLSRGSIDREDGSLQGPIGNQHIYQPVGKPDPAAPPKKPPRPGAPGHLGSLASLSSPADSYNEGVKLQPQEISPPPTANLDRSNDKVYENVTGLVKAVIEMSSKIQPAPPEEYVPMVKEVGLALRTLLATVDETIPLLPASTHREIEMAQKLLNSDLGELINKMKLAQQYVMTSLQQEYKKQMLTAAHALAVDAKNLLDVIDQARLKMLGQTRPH

## CC(C)(C)c1nc2c3ccc(F)cc3c3c(=O)[nH]ccc3c2[nH]1
[1]
  residual activity: 6%
[2]
  residual activity: 93%
[3]
  residual activity: 66%

## COc1ccc(C#Cc2ccc3ncc4ncn(-c5ccc(CCN)cc5)c4c3c2)cc1
[4]
  residual activity: 73%
[5]
  residual activity: 3%
[6]
  residual activity: 47%
[7]
  residual activity: 84%
[8]
  residual activity: 65%
[9]
  residual activity: 35%
[10]
  residual activity: 51%
[11]
  residual activity: 34%
[12]
  residual activity: 97%
[13]
  residual activity: 93%
[14]
  residual activity: 72%
[15]
  residual activity: 83%
[16]
  residual activity: 14%
[17]
  residual activity: 36%
[18]
  residual activity: 1%
[19]
  residual activity: 114%
[20]
  residual activity: 78%
[21]
  residual activity: 55%
[22]
  residual activity: 18%
[23]
  residual activity: 77%
[24]
  residual activity: 77%
[25]
  residual activity: 86%
[1]
  residual activity: 13%
[26]
  residual activity: 66%
[27]
  residual activity: 112%
[28]
  residual activity: 10%
[29]
  residual activity: 33%
[30]
  residual activity: 107%
[31]
  residual activity: 81%
[32]
  residual activity: 85%
[33]
  residual activity: 15%
[34]
  residual activity: 29%
[2]
  residual activity: 76%
[35]
  residual activity: 81%
[36]
  residual activity: 8%
[37]
  residual activity: 15%
[38]
  residual activity: 104%
[39]
  residual activity: 33%
[40]
  residual activity: 81%
[41]
  residual activity: 99%
